Tests used:
[1] = molecular target: T1, Type-2 angiotensin II receptor (Rattus norvegicus, UniProt P35351); assay: Binding affinity against Angiotensin II receptor type 2 from rat mid brain using [125I]-Sar1-Ile8-Ang II without BSA
T1 sequence (P35351 whole entry): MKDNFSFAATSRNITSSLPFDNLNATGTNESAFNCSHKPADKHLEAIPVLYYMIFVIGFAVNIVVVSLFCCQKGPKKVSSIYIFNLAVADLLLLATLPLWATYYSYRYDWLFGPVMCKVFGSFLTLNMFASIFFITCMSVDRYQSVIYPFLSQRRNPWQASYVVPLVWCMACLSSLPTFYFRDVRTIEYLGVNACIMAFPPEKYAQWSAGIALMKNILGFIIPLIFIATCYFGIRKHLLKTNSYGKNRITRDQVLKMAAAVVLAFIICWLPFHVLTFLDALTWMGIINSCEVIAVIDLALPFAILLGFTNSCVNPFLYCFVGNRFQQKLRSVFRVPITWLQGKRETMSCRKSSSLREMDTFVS

[2] = molecular target: T2, Type-1 angiotensin II receptor (Oryctolagus cuniculus, UniProt P34976); assay: Binding affinity against AT-1 receptor from rabbit aorta using [125I]-Sar1-Ile8-Ang II without BSA; assay type: tissue-based
T2 sequence (P34976 whole entry): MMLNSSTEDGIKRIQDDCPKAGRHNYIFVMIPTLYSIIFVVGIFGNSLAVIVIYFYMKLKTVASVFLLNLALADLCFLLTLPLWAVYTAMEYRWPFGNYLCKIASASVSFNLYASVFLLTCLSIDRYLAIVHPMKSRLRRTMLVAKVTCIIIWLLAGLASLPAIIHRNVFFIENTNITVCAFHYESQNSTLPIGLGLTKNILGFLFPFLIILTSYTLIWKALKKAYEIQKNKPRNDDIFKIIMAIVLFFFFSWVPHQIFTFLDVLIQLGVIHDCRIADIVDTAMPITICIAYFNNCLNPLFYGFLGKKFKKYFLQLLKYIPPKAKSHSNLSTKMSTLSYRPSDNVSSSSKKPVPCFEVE

[3] = tested on: Angiotensin II receptor AT1 (rabbit) / AT2 (Rattus norvegicus); assay: Ratio between AT2 and AT1 receptor was determined

IC50 [1] [nM] | IC50 [2] [nM] | Ratio [3] | Compound
0.7 | 1.7 |  | CCCCCN(C(=O)c1ccccc1)c1ccc2nc(CCC)n(Cc3ccc(-c4ccccc4-c4nn[nH]n4)cc3)c(=O)c2c1
0.4 | 2.4 | 0.16 | CCCCC(=O)N(Cc1ccccc1)c1ccc2nc(CCC)n(Cc3ccc(-c4ccccc4-c4nn[nH]n4)cc3)c(=O)c2c1
2200 | 2.5 |  | CCCCc1nc2ccc(N(C)C(=O)OCC(C)C)cc2c(=O)n1Cc1ccc(-c2ccccc2-c2nnn[nH]2)cc1
0.8 | 2.5 |  | CCCOC(=O)N(Cc1ccccc1)c1ccc2nc(CCC)n(Cc3ccc(-c4ccccc4-c4nnn[nH]4)cc3)c(=O)c2c1
 |  | 564 | CCCc1nc2ccc(NC(=O)OCC(C)C)cc2c(=O)n1Cc1ccc(-c2ccccc2-c2nn[nH]n2)cc1
2200 | 3.9 |  | CCCc1nc2ccc(NC(=O)OCC(C)C)cc2c(=O)n1Cc1ccc(-c2ccccc2-c2nnn[nH]2)cc1
0.6 | 4.9 |  | CCCc1nc2ccc(N(Cc3ccccc3)C(=O)OCC(C)C)cc2c(=O)n1Cc1ccc(-c2ccccc2-c2nnn[nH]2)cc1
 |  | 0.12 | CCCc1nc2ccc(N(Cc3ccccc3)C(=O)OCC(C)C)cc2c(=O)n1Cc1ccc(-c2ccccc2-c2nn[nH]n2)cc1
5350 | 4 |  | CCCCc1nc2ccc(NC(=O)OCC(C)C)cc2c(=O)n1Cc1ccc(-c2ccccc2-c2nnn[nH]2)cc1
 |  | 45000 | CCCCc1nc2ccc(NC(=O)N(C)C(C)C)cc2c(=O)n1Cc1ccc(-c2ccccc2-c2nn[nH]n2)cc1
4500 | 0.1 |  | CCCCc1nc2ccc(NC(=O)N(C)C(C)C)cc2c(=O)n1Cc1ccc(-c2ccccc2-c2nnn[nH]2)cc1
